In experiment [1] the target is T1, Histone acetyltransferase KAT2A (Homo sapiens, UniProt Q92830). Kind of experiment: Inhibition of recombinant human KAT2A using biotinylated histone H3 (1 to 21 amino acid residues) as substrate preincubated for 10 mins followed by acetyl-CoA addition measured after 10 mins by time resolved fluorescence assay.
Target sequence in this assay (Q92830 whole entry, the tested form may be a part): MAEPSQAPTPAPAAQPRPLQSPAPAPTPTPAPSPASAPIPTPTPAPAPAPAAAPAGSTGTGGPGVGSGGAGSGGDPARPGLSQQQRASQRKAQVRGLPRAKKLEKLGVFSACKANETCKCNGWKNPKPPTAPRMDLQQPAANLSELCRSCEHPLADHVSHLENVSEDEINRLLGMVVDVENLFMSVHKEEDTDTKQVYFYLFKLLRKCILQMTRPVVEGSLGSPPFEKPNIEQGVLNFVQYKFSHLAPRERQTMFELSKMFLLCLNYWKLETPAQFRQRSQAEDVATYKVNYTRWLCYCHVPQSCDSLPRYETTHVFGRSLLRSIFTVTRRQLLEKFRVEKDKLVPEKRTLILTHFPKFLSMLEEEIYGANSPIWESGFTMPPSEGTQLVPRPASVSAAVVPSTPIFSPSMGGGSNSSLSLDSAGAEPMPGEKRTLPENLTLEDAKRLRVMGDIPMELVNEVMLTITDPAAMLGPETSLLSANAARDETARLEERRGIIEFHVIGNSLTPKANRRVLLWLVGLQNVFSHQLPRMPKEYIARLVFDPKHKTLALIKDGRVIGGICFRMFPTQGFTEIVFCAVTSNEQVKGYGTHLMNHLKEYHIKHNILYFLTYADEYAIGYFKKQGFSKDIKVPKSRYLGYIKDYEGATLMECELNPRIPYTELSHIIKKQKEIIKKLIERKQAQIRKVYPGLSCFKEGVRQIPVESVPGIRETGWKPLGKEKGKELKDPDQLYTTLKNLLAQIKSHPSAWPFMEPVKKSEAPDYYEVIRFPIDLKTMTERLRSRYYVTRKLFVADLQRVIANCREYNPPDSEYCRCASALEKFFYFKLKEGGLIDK
The target in experiment [2] is T2, Histone acetyltransferase KAT2B (Homo sapiens, UniProt Q92831). Kind of experiment: Inhibition of recombinant human KAT2B catalytic domain using biotinylated histone H3 (1 to 21 amino acid residues) as substrate at 50 uM preincubated for 10 mins followed by acetyl-CoA addition measured after 10 mins by time resolved fluorescence assay.
Target sequence in this assay (Q92831 whole entry, looked up, the tested form may be a part): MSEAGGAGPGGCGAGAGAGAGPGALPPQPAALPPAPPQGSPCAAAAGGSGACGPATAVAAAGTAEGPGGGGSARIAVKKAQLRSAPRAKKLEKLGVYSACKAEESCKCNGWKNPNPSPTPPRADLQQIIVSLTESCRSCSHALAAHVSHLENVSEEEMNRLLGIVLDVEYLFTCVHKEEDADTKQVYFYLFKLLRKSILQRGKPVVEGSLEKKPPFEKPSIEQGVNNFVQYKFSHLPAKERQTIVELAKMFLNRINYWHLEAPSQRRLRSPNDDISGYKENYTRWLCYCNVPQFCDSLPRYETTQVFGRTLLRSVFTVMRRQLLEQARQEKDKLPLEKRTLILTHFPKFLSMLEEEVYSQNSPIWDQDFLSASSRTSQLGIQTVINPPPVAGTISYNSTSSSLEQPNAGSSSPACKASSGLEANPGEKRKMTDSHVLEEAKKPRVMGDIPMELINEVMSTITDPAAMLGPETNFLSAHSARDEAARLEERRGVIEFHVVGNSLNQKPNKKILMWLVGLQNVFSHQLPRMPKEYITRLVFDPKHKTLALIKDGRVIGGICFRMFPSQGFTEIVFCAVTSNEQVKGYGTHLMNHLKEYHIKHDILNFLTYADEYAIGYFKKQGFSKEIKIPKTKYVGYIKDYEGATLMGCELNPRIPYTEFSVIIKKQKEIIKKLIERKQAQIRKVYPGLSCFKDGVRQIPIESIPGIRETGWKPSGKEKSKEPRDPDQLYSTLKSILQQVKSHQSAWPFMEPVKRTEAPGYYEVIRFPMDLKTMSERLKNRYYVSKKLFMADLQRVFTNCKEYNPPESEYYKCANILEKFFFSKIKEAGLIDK
Experiment [3] deals with T2, Histone acetyltransferase KAT2B. The experiment is described as follows: Inhibition of recombinant human KAT2B catalytic domain using biotinylated histone H3 (1 to 21 amino acid residues) as substrate preincubated for 10 mins followed by acetyl-CoA addition measured after 10 mins by time resolved fluorescence assay.
Target sequence in this assay (Q92831 whole entry, the tested form may be a part): as the sequence (Q92831 whole entry, looked up, the tested form may be a part) above
Experiment [4] concerns the target T3, Histone acetyltransferase p300 (Homo sapiens, UniProt Q09472). Kind of experiment: Inhibition of recombinant human p300 using biotinylated histone H3 (1 to 21 amino acid residues) as substrate preincubated for 10 mins followed by acetyl-CoA addition measured after 10 mins by time resolved fluorescence assay.
In experiment [5] the target is T1, Histone acetyltransferase KAT2A. The experiment is described as follows: Inhibition of recombinant human KAT2A using biotinylated histone H3 (1 to 21 amino acid residues) as substrate at 50 uM preincubated for 10 mins followed by acetyl-CoA addition measured after 10 mins by time resolved fluorescence assay.
Target sequence in this assay (Q92830 2-837 limits assumed): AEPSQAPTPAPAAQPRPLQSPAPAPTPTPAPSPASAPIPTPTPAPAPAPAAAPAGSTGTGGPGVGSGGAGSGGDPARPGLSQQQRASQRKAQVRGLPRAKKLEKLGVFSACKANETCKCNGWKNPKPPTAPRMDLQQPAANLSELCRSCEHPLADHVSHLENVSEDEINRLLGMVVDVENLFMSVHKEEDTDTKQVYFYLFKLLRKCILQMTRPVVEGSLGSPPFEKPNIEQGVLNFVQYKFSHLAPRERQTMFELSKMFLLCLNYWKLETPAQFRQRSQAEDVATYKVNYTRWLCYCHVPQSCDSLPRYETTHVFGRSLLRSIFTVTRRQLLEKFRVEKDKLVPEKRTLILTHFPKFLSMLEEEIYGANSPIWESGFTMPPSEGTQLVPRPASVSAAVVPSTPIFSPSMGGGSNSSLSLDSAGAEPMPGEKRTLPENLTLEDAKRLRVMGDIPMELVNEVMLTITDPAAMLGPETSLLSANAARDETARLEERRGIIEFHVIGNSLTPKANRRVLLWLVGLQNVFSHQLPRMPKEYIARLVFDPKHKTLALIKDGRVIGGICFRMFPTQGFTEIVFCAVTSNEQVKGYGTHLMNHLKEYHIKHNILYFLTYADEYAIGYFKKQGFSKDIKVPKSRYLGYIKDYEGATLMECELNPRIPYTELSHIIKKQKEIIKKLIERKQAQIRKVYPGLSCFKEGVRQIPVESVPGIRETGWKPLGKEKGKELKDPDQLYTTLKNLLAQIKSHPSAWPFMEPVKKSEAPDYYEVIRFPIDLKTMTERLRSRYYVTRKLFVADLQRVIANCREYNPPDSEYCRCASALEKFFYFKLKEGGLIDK
Experiment [6] concerns the target T3, Histone acetyltransferase p300. The experiment is described as follows: Inhibition of recombinant human p300 using biotinylated histone H3 (1 to 21 amino acid residues) as substrate at 50 uM preincubated for 10 mins followed by acetyl-CoA addition measured after 10 mins by time resolved fluorescence assay.

For 16 compounds, IC50 and inhibition results are on record in ChEMBL document CHEMBL3621044, “Pyrido- and benzisothiazolones as inhibitors of histone acetyltransferases (HATs)” (Medchemcomm, 2014).

T3 sequence (Q09472 whole entry, the tested form may be a part): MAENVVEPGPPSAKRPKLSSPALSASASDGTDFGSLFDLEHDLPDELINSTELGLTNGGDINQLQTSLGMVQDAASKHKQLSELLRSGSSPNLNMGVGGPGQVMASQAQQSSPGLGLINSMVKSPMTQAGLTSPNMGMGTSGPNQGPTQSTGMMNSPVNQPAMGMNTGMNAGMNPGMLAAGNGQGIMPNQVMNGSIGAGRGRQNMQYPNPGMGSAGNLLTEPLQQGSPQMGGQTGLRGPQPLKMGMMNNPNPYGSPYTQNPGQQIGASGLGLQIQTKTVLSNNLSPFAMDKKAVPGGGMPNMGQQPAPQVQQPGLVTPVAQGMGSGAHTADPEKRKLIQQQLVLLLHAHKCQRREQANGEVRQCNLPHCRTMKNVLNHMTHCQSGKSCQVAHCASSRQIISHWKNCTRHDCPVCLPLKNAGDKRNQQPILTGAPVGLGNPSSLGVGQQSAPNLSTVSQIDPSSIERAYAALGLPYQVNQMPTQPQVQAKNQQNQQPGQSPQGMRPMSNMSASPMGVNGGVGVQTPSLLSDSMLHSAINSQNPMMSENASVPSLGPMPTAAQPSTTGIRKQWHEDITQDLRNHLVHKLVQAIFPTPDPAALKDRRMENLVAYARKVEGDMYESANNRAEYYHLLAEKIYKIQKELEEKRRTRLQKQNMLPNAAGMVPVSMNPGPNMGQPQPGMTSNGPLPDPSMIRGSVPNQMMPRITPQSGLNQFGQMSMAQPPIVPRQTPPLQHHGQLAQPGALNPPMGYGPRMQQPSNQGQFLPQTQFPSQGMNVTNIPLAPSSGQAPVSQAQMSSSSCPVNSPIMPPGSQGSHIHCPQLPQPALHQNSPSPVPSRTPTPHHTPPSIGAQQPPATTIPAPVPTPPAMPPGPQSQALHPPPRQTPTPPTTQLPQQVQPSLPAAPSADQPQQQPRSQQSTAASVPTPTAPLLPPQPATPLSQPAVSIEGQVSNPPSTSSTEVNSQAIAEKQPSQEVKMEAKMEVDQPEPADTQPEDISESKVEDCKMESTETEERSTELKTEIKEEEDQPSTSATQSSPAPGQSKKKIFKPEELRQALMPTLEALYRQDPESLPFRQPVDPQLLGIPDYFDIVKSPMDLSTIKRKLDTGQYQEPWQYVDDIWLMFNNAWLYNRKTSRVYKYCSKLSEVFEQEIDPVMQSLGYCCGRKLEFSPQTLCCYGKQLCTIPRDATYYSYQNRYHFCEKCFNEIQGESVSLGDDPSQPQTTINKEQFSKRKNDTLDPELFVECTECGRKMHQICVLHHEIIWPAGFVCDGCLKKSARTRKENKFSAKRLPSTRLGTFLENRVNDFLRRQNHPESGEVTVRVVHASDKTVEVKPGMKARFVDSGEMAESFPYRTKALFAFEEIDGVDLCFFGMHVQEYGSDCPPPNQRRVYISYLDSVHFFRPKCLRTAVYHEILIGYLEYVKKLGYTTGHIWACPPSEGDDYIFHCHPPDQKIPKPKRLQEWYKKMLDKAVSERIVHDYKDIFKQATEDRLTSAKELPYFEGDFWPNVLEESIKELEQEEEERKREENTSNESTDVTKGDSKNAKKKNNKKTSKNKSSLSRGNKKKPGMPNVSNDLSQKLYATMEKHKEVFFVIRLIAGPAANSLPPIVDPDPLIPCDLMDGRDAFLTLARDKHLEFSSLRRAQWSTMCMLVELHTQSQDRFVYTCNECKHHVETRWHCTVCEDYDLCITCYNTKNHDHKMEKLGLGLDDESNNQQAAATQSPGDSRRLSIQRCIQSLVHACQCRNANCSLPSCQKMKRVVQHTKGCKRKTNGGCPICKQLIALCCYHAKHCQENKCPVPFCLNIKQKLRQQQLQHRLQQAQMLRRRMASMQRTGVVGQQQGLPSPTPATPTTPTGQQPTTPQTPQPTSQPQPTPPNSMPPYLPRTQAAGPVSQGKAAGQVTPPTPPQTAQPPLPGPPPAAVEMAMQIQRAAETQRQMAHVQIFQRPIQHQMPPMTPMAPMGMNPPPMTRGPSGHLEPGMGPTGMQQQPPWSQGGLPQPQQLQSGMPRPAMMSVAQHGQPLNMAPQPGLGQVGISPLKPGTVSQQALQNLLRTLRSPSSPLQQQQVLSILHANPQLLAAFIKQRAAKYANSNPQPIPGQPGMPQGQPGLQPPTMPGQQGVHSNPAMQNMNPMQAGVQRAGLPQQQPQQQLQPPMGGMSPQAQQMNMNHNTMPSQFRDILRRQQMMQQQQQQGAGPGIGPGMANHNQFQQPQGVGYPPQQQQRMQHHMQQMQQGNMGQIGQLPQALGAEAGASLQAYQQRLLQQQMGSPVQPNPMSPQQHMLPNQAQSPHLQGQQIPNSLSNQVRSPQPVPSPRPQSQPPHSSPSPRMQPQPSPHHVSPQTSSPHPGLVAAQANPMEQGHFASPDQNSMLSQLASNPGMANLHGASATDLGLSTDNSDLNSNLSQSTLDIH

As a reminder, the IC50 is the midpoint of a concentration-inhibition curve. For orientation: inhibition means the relative decrease from the control value, in per cent. Regarding `Cc1csc(-n2sc3ccccc3c2=O)n1`, the IC50 in experiment [1] amounted to 7.11 µM; in experiment [3], 6.01 µM; in experiment [4] it was 8.14 µM. For the same compound, the inhibition was 92% in experiment [2], 66% in experiment [5] and 70% in experiment [6].
Regarding `O=c1c2ccccc2sn1-c1nccs1`, the IC50 in experiment [1] came to 7.87 µM; in experiment [3] it was 5.77 µM; in experiment [4], 9.35 µM. Further, the inhibition in experiment [2] worked out at 94%; in experiment [5] it was 91%; in experiment [6], 95%.
Turning to `O=c1c2ccccc2sn1-c1nc2ccccc2s1`, the values for the IC50 in experiment [1] and in experiment [3] were 23.3 µM and 4.55 µM, respectively. Besides, the inhibition in experiment [2] came out at 73%; in experiment [5], 66%; in experiment [6], 41.6%.
For the compound `Cc1cc(-n2sc3ccccc3c2=O)c2ccccc2n1`, the inhibition stood at 2.06% in experiment [2], 2.52% in experiment [5] and 20% in experiment [6].
For `Cc1ccnc(-n2sc3ccccc3c2=O)n1`, the IC50 in experiment [1] worked out at 19.9 µM; in experiment [3], 13.6 µM; in experiment [4], 24.7 µM. The inhibition was found to be 90% in experiment [2], 82% in experiment [5] and 82% in experiment [6].
Consider `O=C(O)CCCn1sc2ccccc2c1=O`, for which the concentration for half-maximal inhibition (IC50) is 66.7 µM in experiment [1] and 67 µM in experiment [3]. In addition, the inhibition in experiment [2] came to 36%; in experiment [5] it was 38%; in experiment [6], 8.8%.
As for `O=c1c2cc([N+](=O)[O-])cnc2sn1-c1ccc(Oc2ccccc2)cc1`, the IC50 amounted to 2.04 µM in experiment [1], 5.3 µM in experiment [3] and 2.43 µM in experiment [4]. Besides, the inhibition is 94% in experiment [2], 93% in experiment [5] and 95% in experiment [6].
On to `CCOC(=O)c1ccc(-n2sc3ccccc3c2=O)cc1`, for which the figures for the IC50 in experiment [1], in experiment [3] and in experiment [4] were 8.53 µM, 6.95 µM and 12.9 µM, respectively. Further, the inhibition in experiment [2] stood at 95%; in experiment [5], 93%; in experiment [6], 95%.
For the compound `O=C(O)C(c1ccccc1)n1sc2ccccc2c1=O` (centres undefined), the inhibition in experiment [2] came out at 11.8%; in experiment [5], 28%; in experiment [6], 16.1%.
Consider `CCCCc1ccc(-n2sc3ncc(-c4ccccc4)cc3c2=O)cc1`, for which the IC50 in experiment [1] was 8.65 µM; in experiment [3] it was 6.64 µM; in experiment [4], 8.28 µM. Besides, the inhibition in experiment [2] was 54%; in experiment [5] it was 44%; in experiment [6], 68%.
For the compound `COCCNC(=O)Cn1sc2ccccc2c1=O`, the values for the half-inhibitory concentration (IC50) in experiment [1] and in experiment [3] were 15.5 µM and 11.8 µM, respectively. In addition, the inhibition in experiment [2] was 92%; in experiment [5], 77%; in experiment [6], 45.1%.
Consider `O=c1c2ccccc2sn1-c1ccc(S(=O)(=O)N2CCCC2)cc1`, for which the IC50 in experiment [1] amounted to 6.27 µM; in experiment [3], 6.19 µM; in experiment [4], 8.03 µM. The inhibition worked out at 90% in experiment [2], 73% in experiment [5] and 68% in experiment [6].
On to `Cc1cc(C)c2c(=O)n(C(=O)c3cccs3)sc2n1`, for which the IC50 in experiment [1] is 6.13 µM; in experiment [3] it was 9.3 µM; in experiment [4], 6.74 µM. The inhibition in experiment [2] stood at 97%; in experiment [5], 92%; in experiment [6] it was 97%.
For the compound `O=C(Cn1sc2ccccc2c1=O)Nc1nccs1`, the IC50 in experiment [1] is 21.7 µM; in experiment [3] it was 9.41 µM. The inhibition in experiment [2] turned out to be 97%; in experiment [5], 79%; in experiment [6], 57.4%.
Taken in the same sequence, the figures for `CC(C)CNC(=O)CCn1sc2ccccc2c1=O` were 34.9 µM, 41.8 µM, 59%, 54% and 41.4%.
Turning to `CC(C)CNC(=O)Cn1sc2ccccc2c1=O`, the IC50 worked out at 20.8 µM in experiment [1] and 10.7 µM in experiment [3]. Moreover, the inhibition in experiment [2] worked out at 95%; in experiment [5] it was 78%; in experiment [6], 54.6%.
